Reference: patent publication US20160029629A1, “LAWN GROWTH-PROMOTING AGENT AND METHOD OF USING SAME” (BAYER CROPSCIENCE AKTIENGESELLSCHAFT, priority 2013, published 2016)

Columns and labels:
[1] = test system: Agrostis stolonifera; experiment: Biologic Example 2: seeded lawn test, length of above-ground and root portions after soil treatment; assay type: in vivo
Experimental: Test crop: Agrostis stolonifera Test method: Plastic cups (diameter 20 cm, depth 5 cm) were filled with a soil mixture (1:1 mixture of sand and mulch), the soil was treated (2,000 L/ha water) with penflufen prepared to a predetermined concentration (Cerenturf Forte) on the day A. stolonifera was planted and at 0.5 leaf cycles, after which germination state was examined. In order to ensure evenness of irrigation, an atomizer was used for a fixed number of pushes, and water amount was monitored so as to be uniform. A basal application was not used. Examination method: Cuttings were taken at random from the test area, and the lengths of the above-ground and root portions were measured.

[2] = test system: Zoysia Matrella; experiment: Biological Example 1: sod growth test, weight of roots, runners and erect stems after spray treatment; assay type: in vivo; conditions: for Roots weight: 334 ppm spray, 2,000 L/ha; for Roots weight / Erect stem weight / Erect stems/runners / Roots weight vs. untreated / Roots/(roots + runners + erect stems) / Roots/runners / Runner weight: 170 days later; for Erect stem weight / Erect stems/runners / Roots weight vs. untreated / Roots/(roots + runners + erect stems) / Roots/runners / Runner weight: 334 ppm spray
Description: Test crop: Zoysia Matrella
Test method: Z. Matrella sod was laid in a roughly 15 cm checked pattern, and, approximately one month later, penflufen prepared to a predetermined concentration (Cerenturf Forte; aqueous suspension of 22.7 wt % penflufen and 77.3% surfactant and water, prepared according to a normal method) was sprayed thereon (2,000 L/ha). 170 days later, a hole cutter was used to cut out sod sections and interstitial sections, the sections were separated into roots, runners, and erect stems, and the weight of each was measured.

[3] = test system: brown patch (Rhizoctonia solani); conditions: in vivo; cited from earlier work
[4] = 525 ppm, treated at 0.5 leaf cycles, 5 days after treatment
[5] = 525 ppm, treated on day of planting, 20 days after treatment
[6] = 142 ppm, treated at 0.5 leaf cycles, 5 days after treatment
[7] = 142 ppm, treated on day of planting, 20 days after treatment
[8] = 283 ppm, treated at 0.5 leaf cycles, 5 days after treatment
[9] = 283 ppm, treated on day of planting, 20 days after treatment

SMILES: Cc1nc(C(F)(F)F)c(C(=O)Nc2c(Br)cc(OC(F)(F)F)cc2Br)s1 [Thifluzamide]
- Above-ground portion (mm) [1, 4]: 16.9 mm
- Roots (mm) [1, 4]: 2.0 mm
- Roots/above-ground portion % [1, 4]: 12.0%
- Above-ground portion (mm) [1, 5]: 15.3 mm
- Roots (mm) [1, 5]: 1.4 mm
- Roots/above-ground portion % [1, 5]: 9.1%

SMILES: Cc1nn(C)c(F)c1C(=O)Nc1ccccc1C(C)CC(C)C (stereo not shown) [Penflufen, N-[2-(1,3-dimethylbutyl)phenyl]-5-fluoro-1,3-dimethyl-1H-pyrazol-4-carboxamide]
- Amount of roots compared to the untreated area ([2]; both the interstitial section and the sod section): increase in the amount of roots
- Ratio of the root weight to the total weight of the roots, runners, and erect stems, treated vs untreated area ([2]; in vivo): higher in the treated area than in the untreated area
- Amount of roots compared to the untreated area ([2]; interstitial section): especially marked increase
- Roots weight ([2]; interstitial section): 1.13 g
- Erect stem weight ([2]; interstitial section): 4.57 g
- Erect stems/runners ([2]; interstitial section): 124%
- Roots weight vs. untreated ([2]; interstitial section): 127%
- Roots/(roots + runners + erect stems) ([2]; interstitial section): 12.02%
- Roots/runners ([2]; interstitial section): 31%
- Runner weight ([2]; interstitial section): 3.70 g
- Roots weight ([2]; sod section): 1.57 g
- Erect stem weight ([2]; sod section): 11.52 g
- Erect stems/runners ([2]; sod section): 130%
- Roots weight vs. untreated ([2]; sod section): 103%
- Roots/(roots + runners + erect stems) ([2]; sod section): 7.16%
- Roots/runners ([2]; sod section): 18%
- Runner weight ([2]; sod section): 8.84 g
- Above-ground portion (mm) [1, 6]: 18.8 mm
- Roots (mm) [1, 6]: 3.9 mm
- Roots/above-ground portion % [1, 6]: 20.6%
- Above-ground portion (mm) [1, 7]: 15.9 mm
- Roots (mm) [1, 7]: 3.3 mm
- Roots/above-ground portion % [1, 7]: 20.8%
- Above-ground portion (mm) [1, 8]: 17.3 mm
- Roots (mm) [1, 8]: 3.5 mm
- Roots/above-ground portion % [1, 8]: 20.1%
- Above-ground portion (mm) [1, 9]: 17.3 mm
- Roots (mm) [1, 9]: 3.2 mm
- Roots/above-ground portion % [1, 9]: 18.8%
- Root growth relative to above-ground portions ([1]; registered weight (283 ppm) and half-weight, planting day and 0.5 leaf cycle treatment): root growth tended to be promoted over that of above-ground portions
- Effectiveness against brown patch [3]: extremely effective
